Assay results from patent US20250206754A1, “PAN-CHEMOKINE ANTAGONISTS FOR USE IN TREATING CANCER AND IMMUNE DISORDERS” ("Micar Innovation" LTD., priority 2022, published 2025).
Like-named read-outs stand apart in the source and are kept apart here.

Tested on: 4T-1-luc cells
Assay type: in vivo
Settings: for bioluminescence intensity of lung: Day32 after inoculation, ex vivo; for total number of metastasis found by the ex-vivo studies: control group 10; for Metastasis on Liver, mice with metastasis / Metastasis on Liver, total number / Metastasis on Lung, mice with metastasis / Metastasis on Lung, total number / Metastasis on ribs, mice with metastasis / Metastasis on ribs, total number: ex-vivo
Experimental: Design of the in vivo study: A total of 44 female BALB/c mice (12 mice for maximal tolerance dose (MTD) study; 32 mice for efficacy study) were used in the 4T-1-Luc study. The animals were specific pathogen free and approximately 4-5 weeks old at the initiation of the study.
Murine breast carcinoma cells 4T-1-luc cells used in this study, were cultured in a 37° C. incubator containing 5% CO2 with 10% FBS and 2 μg/mL puromycin in RPMI1640 medium. The cells were sub-cultured within 10 passages before inoculated into the mice. 2*10^5 4T-1-luc cells suspended in 20 uL PBS were orthotopically injected into the 4th fat pat on the right side of each mouse. Before inoculation, mice were pre-anesthetized with 30 mg/kg Zoletil mixed with 10 mg/kg Xylazine and kept anesthetized with 3-4% isoflurane. Injected subcutaneously 20 mg/kg Tolfedine as painkillers once a day for 3 days. The day of cell inoculation was denoted as Day0. On Day3, 16 bearing-tumor mice were randomized into 4 groups (4 mice per group) according to body weight and BLI signal. The information of the preparation of Hit 1 dosing solution is as follow:
For 2-({6-phenylthieno[2,3-d]pyrimidin-4-yl}oxy)benzamide (Hit1, MIC5022) 5 mg/kg dose, the preparation was like that: weighed 2.5 mg of Hit 1, added in 0.50 ml of ethanol, vortex or magnetic stirring enough to mix well (all compound dissolved will be better), added in 2.00 ml of PEG400, vortex or magnetic stirring until getting a clear solution (no more than 60° C. water base ultrasonicate may be needed), added 2.50 ml of water to get clear solution. The concentration was 0.5 mg/ml, the storage condition was at 4C temperature and the preparation frequency was each 5 days.
For 2-({6-phenylthieno[2,3-d]pyrimidin-4-yl}oxy)benzamide (Hit1, MIC5022) 30 mg/kg dose, the preparation was like that: weighed 15 mg of Hit 1, added in 0.50 ml of ethanol, vortex or magnetic stirring enough to mix well (all compound dissolved will be better), added in 2.00 ml of PEG400, vortex or magnetic stirring until getting a clear solution (no more than 60° C. water base ultrasonicate may be needed), added 2.50 ml of water to get clear solution. The concentration was 3 mg/ml, the storage condition was at 4C temperature, and the preparation frequency was each 5 days.
The concentration was 15 mg/ml, the storage condition was at 4C temperature, and the preparation frequency was each 5 days.
Each mouse has been observed for changes in general appearance and behavior every day for 4 weeks after grouping. The abnormal phenomena were recorded.
Body weight: Mice were measured and recorded twice a week after grouping, and during the dose period. Animals were also weighed in the event of accidental death or near-death euthanasia. Tumor volume: The tumor volume (V) was calculated as follows: V=(length×width2)/2. Tumor volume was measured twice per week. Tumor growth inhibition (TGI), TGI=(1−(T/C)×100%; T and C as the mean tumor volumes of the treatment and control groups on the measurement day.
The individual relative tumor volume (RTV) was calculated as follows: RTV=Vt/V0, where Vt was the volume on each day, and V0 was the volume at the beginning of the treatment. IVIS imaging: We used IVIS® In Vivo Imaging Systems (PerkinElmer, Waltham, MA) which allow high sensitivity and high resolution in vivo BLI and fluorescence imaging (FLI) across a wide range of wavelengths. Animals were imaged up to five at a time under 3-4% isoflurane gas anesthesia. Each mouse has been injected with D-Luciferin and imaged 10-15 minutes after the injection. BLI signal was quantified in regions of interest (ROIs) drawn around tumors or tissues ex vivo and the signal is expressed as photons per second, representing the flux radiating omni-directionally from the user-defined region […] post grouping (Day3, Day10, Day14, Day17, Day21, Day24, Day28 and Day31).

[1] = G2 5 mg/kg, Day31 after inoculation
[2] = G3 30 mg/kg, Day31 after inoculation
[3] = G4 150 mg/kg, Day31 after inoculation

NC(=O)c1ccccc1Oc1ncnc2sc(-c3ccccc3)cc12 [Hit 1, 2-({6-phenylthieno[2,3-d]pyrimidin-4-yl}oxy)benzamide]
bioluminescence intensity of lung (5 mg/kg): 1.07E+06 | total number of metastasis found by the ex-vivo studies (5 mg/kg): 3 | bioluminescence intensity of lung (30 mg/kg): 1.66E+06 | total number of metastasis found by the ex-vivo studies (30 mg/kg): 2 | bioluminescence intensity of lung (150 mg/kg): 1.56E+06 | total number of metastasis found by the ex-vivo studies (150 mg/kg): 5 | reduction of the spread of the tumor (bioluminescence vs control) (5, 30, 150 mg/kg, Day31): 6-10 folds | metastasis in liver and ribs (5, 30, 150 mg/kg, ex-vivo images and manual counting): completely eliminated | reduction of metastasis development (lung bioluminescence vs control) (5, 30 and 150 mg/kg, Day32): about five | Animal bioluminescence imaging intensity, Mean (G2 5 mg/kg p.o. QD, Day 3): 2.07E+07 10^8 p/s | Animal bioluminescence imaging intensity, Mean (G2 5 mg/kg p.o. QD, Day 10): 1.56E+08 10^8 p/s | Animal bioluminescence imaging intensity, Mean (G2 5 mg/kg p.o. QD, Day 17): 3.39E+08 10^8 p/s | Animal bioluminescence imaging intensity, Mean (G2 5 mg/kg p.o. QD, Day 21): 4.78E+08 10^8 p/s | Animal bioluminescence imaging intensity, Mean (G2 5 mg/kg p.o. QD, Day 24): 3.52E+08 10^8 p/s | Animal bioluminescence imaging intensity, Mean (G2 5 mg/kg p.o. QD, Day 28): 4.34E+08 10^8 p/s | Animal bioluminescence imaging intensity, Mean (G2 5 mg/kg p.o. QD, Day 31): 5.01E+08 10^8 p/s | bioluminescence intensity (G2 5 mg/kg, Day3 after inoculation): 0.21*10^7±0.056*10^8 p/s | tumor volume (TV) (G2 5 mg/kg, Day10 after inoculation): 86.53±6.03 mm^3 | bioluminescence intensity [1]: 5.01*10^8±2.67*10^8 p/s | relative tumor volume (RTV) [1]: 5.99±0.61 | tumor volume (TV) [1]: 515.90±53.18 mm^3 | Metastasis on Liver, mice with metastasis (G2 (5 mg/kg)): (0/4 mice) | Metastasis on Liver, total number (G2 (5 mg/kg)): totally 0 | Metastasis on Lung, mice with metastasis (G2 (5 mg/kg)): 2/4 and (2/4 mice) | Metastasis on Lung, total number (G2 (5 mg/kg)): totally 3 | Metastasis on ribs, mice with metastasis (G2 (5 mg/kg)): (0/4 mice) | Metastasis on ribs, total number (G2 (5 mg/kg)): totally 0 | TV, RTV and TW compared with G1 (G2, G3 and G4 (5, 30, 150 mg/kg), p>0.05): no significant differences | tumor weight (TW) (G3 30 mg/kg): 0.95 ± 0.16 g | Animal bioluminescence imaging intensity, Mean (G3 30 mg/kg p.o. QD, Day 3): 2.31E+07 10^8 p/s | Animal bioluminescence imaging intensity, Mean (G3 30 mg/kg p.o. QD, Day 10): 2.71E+08 10^8 p/s | Animal bioluminescence imaging intensity, Mean (G3 30 mg/kg p.o. QD, Day 17): 1.32E+08 10^8 p/s | Animal bioluminescence imaging intensity, Mean (G3 30 mg/kg p.o. QD, Day 21): 1.30E+08 10^8 p/s | Animal bioluminescence imaging intensity, Mean (G3 30 mg/kg p.o. QD, Day 24): 2.08E+08 10^8 p/s | Animal bioluminescence imaging intensity, Mean (G3 30 mg/kg p.o. QD, Day 28): 4.49E+08 10^8 p/s | Animal bioluminescence imaging intensity, Mean (G3 30 mg/kg p.o. QD, Day 31): 3.26E+08 10^8 p/s | bioluminescence intensity (G3 30 mg/kg, Day3 after inoculation): 0.23*10^7±0.075*10^8 p/s | tumor volume (TV) (G3 30 mg/kg, Day10 after inoculation): 90.30±7.67 mm^3 | bioluminescence intensity [2]: 3.26*10^8±0.89*10^8 p/s | relative tumor volume (RTV) [2]: 5.33±0.64 | tumor volume (TV) [2]: 489.69±85.03 mm^3 | Metastasis on Liver, mice with metastasis (G3 (30 mg/kg)): (0/4 mice) | Metastasis on Liver, total number (G3 (30 mg/kg)): totally 0 | Metastasis on Lung, mice with metastasis (G3 (30 mg/kg)): 2/4 and (2/4 mice) | Metastasis on Lung, total number (G3 (30 mg/kg)): totally 2 | Metastasis on ribs, mice with metastasis (G3 (30 mg/kg)): (0/4 mice) | Metastasis on ribs, total number (G3 (30 mg/kg)): totally 0 | RTV course (G3 group 30 mg/kg, after day 24): clear decrease in the RTV | tumor weight (TW) (G4 150 mg/kg): 1.05 ± 0.19 g | bioluminescence intensity (G4 150 mg/kg, Day3 after inoculation): 0.21*10^7±0.054*10^8 p/s | tumor volume (TV) (G4 150 mg/kg, Day10 after inoculation): 85.22±10.26 mm^3 | bioluminescence intensity [3]: 5.08*10^8±2.16*10^8 p/s | relative tumor volume (RTV) [3]: 5.92±0.63 | tumor volume (TV) [3]: 515.66±98.37 mm^3 | Metastasis on Liver, mice with metastasis (G4 (150 mg/kg)): (0/4 mice) | Metastasis on Liver, total number (G4 (150 mg/kg)): totally 0 | Metastasis on Lung, total number (G4 (150 mg/kg)): totally 5 | Metastasis on ribs, mice with metastasis (G4 (150 mg/kg)): (0/4 mice) | Metastasis on ribs, total number (G4 (150 mg/kg)): totally 0 | Animal bioluminescence imaging intensity, Mean (Q4 150 mg/kg p.o. QD, Day 3): 2.07E+07 10^8 p/s | Animal bioluminescence imaging intensity, Mean (Q4 150 mg/kg p.o. QD, Day 10): 4.97E+07 10^8 p/s | Animal bioluminescence imaging intensity, Mean (Q4 150 mg/kg p.o. QD, Day 15): 1.33E+08 10^8 p/s | Animal bioluminescence imaging intensity, Mean (Q4 150 mg/kg p.o. QD, Day 17): 2.43E+08 10^8 p/s | Animal bioluminescence imaging intensity, Mean (Q4 150 mg/kg p.o. QD, Day 21): 2.94E+08 10^8 p/s | Animal bioluminescence imaging intensity, Mean (Q4 150 mg/kg p.o. QD, Day 24): 3.20E+08 10^8 p/s | Animal bioluminescence imaging intensity, Mean (Q4 150 mg/kg p.o. QD, Day 28): 5.27E+08 10^8 p/s | Animal bioluminescence imaging intensity, Mean (Q4 150 mg/kg p.o. QD, Day 31): 5.08E+08 10^8 p/s | death or abnormal behavior during the experiment (efficacy study, 5, 30, 150 mg/kg p.o. QD): no mice death or abnormal behavior of mice | safety conclusion (mouse, in vivo): relatively biologically safe
